Experimental data reported in US11076595B2, “1-(n,n-disubstituted carbamoyl) 4-(substituted sulfonyl)triazolin-5-one derivative, 4-(n,n-disubstituted carbamoyl) 1-(substituted sulfonyl)triazolin-5-one derivative, and herbicide containing said derivative as active ingredient” (HOKKO CHEMICAL INDUSTRY CO., LTD., priority 2017, dated 2021).

What was measured:
Format in all cases: in vivo
Echinochloa crus-galli [1] = experiment: Test Example 11: herbicidal effect test by soil treatment in paddy field; conditions: 120 g/10a active ingredient, 14 days after treatment
Summary of the method: (§1)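 Weed suppression rate (%) was calculated as (1 − mean treated dry weight / mean untreated dry weight) × 100 at 14 days after treatment, two replicates per plot. Seeds were sown at 0–1 cm in flooded (about 3 cm) puddled paddy soil and treated immediately at 120 g active ingredient per 10 are.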

Lindernia pyxidaria [2] = experiment: as above; conditions: 120 g/10a active ingredient, 14 days after treatment
Summary of the method: as §1

Monochoria vaginalis [3] = experiment: as above; conditions: 120 g/10a active ingredient, 14 days after treatment
Summary of the method: as §1

Scirpus juncoides [4] = experiment: as above; conditions: 120 g/10a active ingredient, 14 days after treatment
Summary of the method: as §1

Echinochloa crus-galli [5] = experiment: Test Example 12: herbicidal effect test by treatment during growing period in paddy field; conditions: 120 g/10a; treatment seven days after sowing in flooded paddy pot; assessed 14 days after treatment
Summary of the method: (§2)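 Growing-period treatment in flooded paddy pots: the diluted emulsifiable concentrate was dripped in at 120 g a.i. per 10 are seven days after seeding. Inhibition is expressed as percent reduction in dry weight versus untreated pots, measured 14 days later in duplicate.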

Lindernia pyxidaria [6] = experiment: as above; conditions: 120 g/10a; treatment seven days after sowing in flooded paddy pot; assessed 14 days after treatment
Summary of the method: as §2

Monochoria vaginalis [7] = experiment: as above; conditions: 120 g/10a; treatment seven days after sowing in flooded paddy pot; assessed 14 days after treatment
Summary of the method: as §2

Scirpus juncoides [8] = experiment: as above; conditions: 120 g/10a; treatment seven days after sowing in flooded paddy pot; assessed 14 days after treatment
Summary of the method: as §2

Chenopodium album = experiment: Test Example 14: herbicidal effect test by foliage treatment in upland field; conditions: 7 days after sowing, 120 g/10a, 14 days after treatment
Description: (§3) A pot having a size of 36 cm^2 was filled with field soil (alluvial soil) and after uniformly mixing the soil of the surface layer of 1 cm with 20 grains of each weed seed of crabgrass, Echinochloa crus-galli, Chenopodium album and Amaranthus viridis, the surface layer was pressed lightly. Seven Days after the sowing, an emulsifiable concentrate prepared according to Formulation Example 15 by using the compound shown in Table 12 below was diluted with water, and the water-diluted formulation was sprayed on the soil surface at a ratio of 100 liter per 10 are. The application rate of the active ingredient, by conversion, corresponded to 120 g per 10 are. Fourteen Days after the formulation treatment, the herbicidal effect was evaluated by the same criteria as in Test Example 11.

crabgrass = experiment: as above; conditions: 7 days after sowing, 120 g/10a, 14 days after treatment
Description: as §3

Amaranthus viridis = experiment: as above; conditions: 7 days after sowing, 120 g/10a, 14 days after treatment
Description: (§4) This test was performed with two replications per one formulation concentration plot, and 14 days after the formulation treatments, the weed suppression rate (%) was determined according to the following equation (Math. 2). Weed suppression rate (%)=(1−average dry weight (g) of plants in treated plots/average dry weight (g) of plants in untreated plots)×100 [Math. 2]
as §3

Echinochloa crus-galli [9] = experiment: as above; conditions: 7 days after sowing, 120 g/10a, 14 days after treatment
Description: as §4, §3

| Compound | Weed suppression rate (%) Echinochloa crus-galli (Echinochloa crus-galli [1]) | Weed suppression rate (%) Lindemia pyxidaria (Lindernia pyxidaria [2]) | Weed suppression rate (%) Monochoria vaginalis (Monochoria vaginalis [3]) | Weed suppression rate (%) Scirpus juncoides (Scirpus juncoides [4]) | Weed suppression rate (%) Echinochloa crus-galli (Echinochloa crus-galli [5]) | Weed suppression rate (%) Lindemia pyxidaria (Lindernia pyxidaria [6]) | Weed suppression rate (%) Monochoria vaginalis (Monochoria vaginalis [7]) | Weed suppression rate (%) Scirpus juncoides (Scirpus juncoides [8]) | herbicidal effect, Chenopodium album (Chenopodium album) | herbicidal effect, Crabgrass (crabgrass) | herbicidal effect, Amaranthus viridis (Amaranthus viridis) | herbicidal effect, Echinochloa crus-galli (Echinochloa crus-galli [9]) |
| --- | --- | --- | --- | --- | --- | --- | --- | --- | --- | --- | --- | --- |
| CC(C)N(C(=O)n1cnn(S(=O)(=O)C2CCCCC2)c1=O)c1ccc(Cl)cc1Br [Compound 11-306] | 100% | 80% | 60% | 100% | 90% | 70% | 70% | 100% | 70% | 100% | 70% | 60% |
| O=C(N(CC(F)(F)F)c1ccc(F)cc1F)n1cnn(S(=O)(=O)C2CC2)c1=O [Compound 11-144] | 100% | 90% | 80% | 100% | 100% | 100% | 100% | 100% | 60% | 80% | 80% | 80% |
| CC(C)N(C(=O)n1cnn(S(=O)(=O)c2cccs2)c1=O)c1c(F)cc(F)cc1F [Compound 11-1026] | 100% | 100% | 100% | 100% | 100% | 80% | 100% | 100% | 70% | 90% | 30% | 90% |
| CC(C)N(C(=O)n1cnn(S(=O)(=O)C2CCCCC2)c1=O)c1ccc(C(F)(F)F)cc1F [Compound 11-311] |  |  |  |  |  |  |  |  | 30% | 100% | 60% | 90% |
| CC(C)N(C(=O)n1cnn(S(=O)(=O)C2CCCCC2)c1=O)c1ccc(Br)cc1Cl [Compound 11-305] | 100% | 100% | 100% | 90% | 100% | 90% | 100% | 100% |  |  |  |  |
| CC(C)N(C(=O)n1cnn(S(=O)(=O)c2ccc(Cl)cc2)c1=O)c1cccc(F)c1F [Compound 11-587] | 90% | 80% | 60% | 60% | 90% | 80% | 90% | 90% |  |  |  |  |
| CC(C)N(C(=O)n1cnn(S(=O)(=O)c2cccc(Cl)c2)c1=O)c1ccc(F)c(F)c1F [Compound 11-553] | 100% | 90% | 70% | 30% | 100% | 70% | 60% | 30% |  |  |  |  |
| CC(C)N(C(=O)n1cnn(S(=O)(=O)c2ccc(C(C)(C)C)cc2)c1=O)c1ccccc1F [Compound 11-672] | 90% | 80% | 80% | 90% | 90% | 80% | 80% | 90% |  |  |  |  |
